Measured values taken from US8106055B2, “Substituted amide compounds” (Gruenenthal GmbH, priority 2007, dated 2012).

Tests used:
[1] = biological target: T1, serotonin (5-HT) reuptake (Rattus norvegicus, UniProt P31652); assay: Inhibition of serotonin (5HT) reuptake in synaptosomes from rat brain; format: biochemical; settings: test concentration of 10 μM; for inhibition at 10 µM: read-out: 5-HT (inhibition of reuptake of serotonin, % inhibition)
T1 construct: synaptosomes are freshly isolated from areas of the rat brain; from tissue; host or cells: rat brain synaptosomes (P2 fraction)
Summary of the method: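 Freshly isolated rat brain synaptosomes (P2 fraction) used for 5-HT reuptake. Test compound at 10 μM, activity given as % inhibition.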

[2] = biological target: T2, human bradykinin 1 receptor (B1R) (Homo sapiens, UniProt P46663); assay: Functional investigation on the human bradykinin 1 receptor (B1R), Ca2+ FLIPR assay in CHO K1 hB1R cells; format: cell-based; settings: test substance 10 μM, Ca2+ FLIPR, CHO K1 hB1R cells; for B1R Ant. h [10 μM] % Inhibition: B1R antagonism human; for inhibition at 10 µM: CHO-K1, B1R antagonism human, read-out: B1R Ant. h [10 μM] % Inhibition
T2 construct: expressed in transfected cells; host or cells: CHO K1 cells
T2 sequence (P46663 1-353): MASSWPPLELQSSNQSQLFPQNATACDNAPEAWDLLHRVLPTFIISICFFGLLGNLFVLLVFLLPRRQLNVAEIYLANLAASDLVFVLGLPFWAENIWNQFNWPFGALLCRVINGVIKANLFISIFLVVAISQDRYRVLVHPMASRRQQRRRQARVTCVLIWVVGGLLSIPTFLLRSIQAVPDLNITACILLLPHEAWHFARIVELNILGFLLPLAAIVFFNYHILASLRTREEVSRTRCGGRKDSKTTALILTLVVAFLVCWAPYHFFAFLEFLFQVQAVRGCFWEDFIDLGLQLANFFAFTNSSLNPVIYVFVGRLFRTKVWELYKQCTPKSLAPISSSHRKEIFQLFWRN
Summary of the method: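 Cells were dye-loaded with Fluo-4 plus probenecid, then test substances added and Ca2+ influx compared with agonist control for % activation. After 10-20 min, EC80 agonist (Lys-Des-Arg9-bradykinin human; Des-Arg9-bradykinin rat) was applied; suppression gave % inhibition and IC50 values.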

T1 sequence (P31652 whole entry): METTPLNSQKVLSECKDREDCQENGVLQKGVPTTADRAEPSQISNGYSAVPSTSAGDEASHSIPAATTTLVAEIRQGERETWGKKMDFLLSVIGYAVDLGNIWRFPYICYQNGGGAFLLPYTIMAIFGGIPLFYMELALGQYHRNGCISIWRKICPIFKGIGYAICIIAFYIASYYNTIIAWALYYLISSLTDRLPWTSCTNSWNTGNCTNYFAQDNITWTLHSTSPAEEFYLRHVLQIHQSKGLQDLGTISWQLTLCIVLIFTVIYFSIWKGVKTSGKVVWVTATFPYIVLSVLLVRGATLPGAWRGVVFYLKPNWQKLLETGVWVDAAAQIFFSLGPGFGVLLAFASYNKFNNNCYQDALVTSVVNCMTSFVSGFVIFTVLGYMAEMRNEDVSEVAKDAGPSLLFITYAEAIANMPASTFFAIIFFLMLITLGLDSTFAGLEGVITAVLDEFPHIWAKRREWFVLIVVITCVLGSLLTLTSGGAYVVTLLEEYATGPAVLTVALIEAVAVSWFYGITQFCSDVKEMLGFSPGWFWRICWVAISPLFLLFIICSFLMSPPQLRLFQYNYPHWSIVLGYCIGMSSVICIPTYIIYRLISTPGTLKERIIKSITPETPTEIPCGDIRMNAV

| Compound | 5-HT (inhibition of reuptake of serotonin, % inhibition) [1] [%] | B1R Ant. h [10 μM] % Inhibition [2] [%] | inhibition at 10 µM [1] [%] | inhibition at 10 µM [2] [%] | 5-HT (inhibition of reuptake of serotonin, % inhibition) ([1]; 10 µM) [%] |
| --- | --- | --- | --- | --- | --- |
| COc1cc(C)c(S(=O)(=O)N(CCOCC(=O)NCC2CCC(C(c3ccc(Cl)cc3)N(C)C)CC2)Cc2ccccc2)c(C)c1C (centres unmarked) [Example 560] | 47 | 16 | – | – | – |
| CN(C)C(c1ccccc1)C1CCC(NC(=O)COCCN(C)S(=O)(=O)c2c(Cl)cccc2Cl)CC1 (centres unmarked) [Example 135, 2-(2-(2,6-dichloro-N-methylphenylsulfonamido)ethoxy)-N-(4-((dimethylamino)(phenyl)methyl)cyclohexyl)acetamide] | – | – | 83 | 79 | – |
| COc1cc(C)c(S(=O)(=O)N(CCOCC(=O)NCC2CCC(C(CCc3ccccc3)N(C)C)CC2)Cc2ccccc2)c(C)c1C (centres unmarked) [Example 562] | 96 | 91 | – | – | – |
| COc1cc(C)c(S(=O)(=O)N(CCOCC(=O)NCC2CCC(C(c3ccc(F)cc3)N(C)C)CC2)Cc2ccccc2)c(C)c1C (centres unmarked) [Example 563] | 90 | 54 | – | – | – |
| CN(C)C(CCc1ccccc1)C1CCC(CNC(=O)COC2CCN(S(=O)(=O)c3ccc(Cl)cc3)C2)CC1 (centres unmarked) [Example 557] | 88 | 20 | – | – | – |
| CN(C)C(CCc1ccccc1)C1CCC(CNC(=O)COC2CCCN(S(=O)(=O)c3ccccc3)C2)CC1 (centres unmarked) [Example 558] | 92 | 14 | – | – | – |
| Cc1cc(C)c(S(=O)(=O)N(C)CCOCC(=O)NC2CCC(C(c3ccccc3)N(C)C)CC2)c(C)c1 (centres unmarked) [Example 63, N-(4-((dimethylamino)(phenyl)methyl)cyclohexyl)-2-(2-(N,2,4,6-tetramethylphenylsulfamido)ethoxy)acetamide] | 79 | 92 | – | – | – |
| COc1ccc(S(=O)(=O)N(C)CCOCC(=O)NC2CCC(C(c3ccc(F)cc3)N(C)C)CC2)cc1OC (centres unmarked) [Example 548] | 99 | 6 | – | – | – |
| CN(C)C(c1ccccc1)C1CCC(CNC(=O)COCCN(C)S(=O)(=O)c2ccc(Cl)cc2)CC1 (centres unmarked) [Example 110, 2-(2-(4-chloro-N-methylphenylsulfonamido)ethoxy)-N-((4-((dimethylamino) (phenyl)methyl)cyclohexyl)methyl)acetamide] | – | – | 94 | 21 | – |
| CN(C)C(c1cccs1)C1CCC(CCNC(=O)COCCN(Cc2ccccc2)S(=O)(=O)c2ccccc2)CC1 (centres unmarked) [Example 116, 2-(2-(N-benzylphenylsulfonamido)ethoxy)-N-(2-(4-((dimethylamino)(thiophen-2-yl)methyl)cyclohexyl)ethyl)acetamide] | – | – | 97 | 28 | – |
| COc1cc(C)c(S(=O)(=O)N2CCC(OCC(=O)NCC3CCC(C(CCc4ccccc4)N(C)C)CC3)C2)c(C)c1 (centres unmarked) [Example 565] | 94 | 102 | – | – | – |
| COc1ccc(S(=O)(=O)N2CCCCC2COCC(=O)NCC2CCC(C(c3cccs3)N(C)C)CC2)cc1OC (centres unmarked) [Example 133, 2-((1-(3,4-Dimethoxyphenylsulfonyl)piperidin-2-yl)methoxy)-N-((4-((dimethylamino)(thiophen-2-yl)methyl)cyclohexyl)methyl)acetamide] | – | – | 88 | -23 | – |
| COc1ccc(S(=O)(=O)N2CCCCC2COCC(=O)NC2CCC(C(c3ccc(F)cc3)N(C)C)CC2)cc1OC (centres unmarked) [Example 555] | 86 | −14 | – | – | – |
| CN(C)C(c1ccc(F)cc1)C1CCC(CCNC(=O)COCCN(C)S(=O)(=O)c2ccc(Cl)cc2Cl)CC1 (centres unmarked) [Example 586] | 73 | 95 | – | – | – |
| CN(C)C(CCc1ccccc1)C1CCC(CNC(=O)COCC2CCCN(S(=O)(=O)c3ccccc3)C2)CC1 (centres unmarked) [Example 544] | 92 | 22 | – | – | – |
| CN(C)C(c1ccc(F)cc1)C1CCC(CCNC(=O)COC2CCN(S(=O)(=O)c3ccccc3)CC2)CC1 (centres unmarked) [Example 553] | 94 | −21 | – | – | – |

| Compound | 5-HT (inhibition of reuptake of serotonin, % inhibition) [1] [%] | B1R Ant. h [10 μM] % Inhibition [2] [%] | inhibition at 10 µM [1] [%] | inhibition at 10 µM [2] [%] | 5-HT (inhibition of reuptake of serotonin, % inhibition) ([1]; 10 µM) [%] |
| --- | --- | --- | --- | --- | --- |
| COc1cc(C)c(S(=O)(=O)N2CCC(OCC(=O)NCC3CCC(C(c4cccs4)N(C)C)CC3)CC2)c(C)c1C (centres unmarked) [Example 104, N-((4-((dimethylamino)(thiophen-2-yl)methyl)cyclohexyl)methyl)-2-(1-(4-methoxy-2,3,6-trimethylphenylsulfonyl)piperidin-4-yloxy)acetamide] | – | – | 93 | 24 | – |
| CN(C)C(c1cccc(F)c1)C1CCC(CCNC(=O)COCCC2CCN(S(=O)(=O)c3ccccc3)CC2)CC1 (centres unmarked) [Example 543] | 76 | −31 | – | – | – |
| CN(C)C(c1cccc(F)c1)C1CCC(NC(=O)COC2CCCCC2N(C)S(=O)(=O)c2ccc(Cl)c(Cl)c2)CC1 (centres unmarked) [Example 132, 2-(2-(3,4-dichloro-N-methylphenylsulfonamido)cyclohexyloxy)-N-(4-((dimethylamino)(3-fluorophenyl)methyl)cyclohexyl)acetamide] | – | – | 83 | 40 | – |
| CN(C)C(CCc1ccccc1)C1CCC(CNC(=O)COCCN(C)S(=O)(=O)c2ccc(OC(F)(F)F)cc2)CC1 (centres unmarked) [Example 567] | 93 | 75 | – | – | – |
| CN(C)C(c1cccs1)C1CCC(CNC(=O)COCCN(Cc2ccccc2)S(=O)(=O)c2ccccc2)CC1 (centres unmarked) [Example 102, 2-(2-(N-benzylphenylsulfonamido)ethoxy)-N-((4-((dimethylamino)(thiophen-2-yl)methyl)cyclohexyl)methyl)acetamide] | – | – | 92 | -4 | – |
| COc1cc(C)c(S(=O)(=O)N2CCC(OCC(=O)NC3CCC(C(c4cccs4)N(C)C)CC3)C2)c(C)c1 (centres unmarked) [Example 98, N-(4-((dimethylamino)(thiophen-2-yl)methyl)cyclohexyl)-2-(1-(4-methoxy-2,6-dimethylphenylsulfonyl)pyrrolidin-3-yloxy)acetamide] | – | – | 92 | 64 | – |
| CN(C)C(c1ccc(Cl)cc1)C1CCC(CCNC(=O)COCCN(C)S(=O)(=O)c2ccc(OC(F)(F)F)cc2)CC1 (centres unmarked) [Example 575] | 77 | −4 | – | – | – |
| CN(C)C(c1ccc(F)cc1)C1CCC(CNC(=O)COC2CCN(S(=O)(=O)c3ccccc3)CC2)CC1 (centres unmarked) [Example 568] | 97 | −20 | – | – | – |
| COc1cc(C)c(S(=O)(=O)N2CCC(CCOCC(=O)NCC3CCC(C(c4cccs4)N(C)C)CC3)CC2)c(C)c1C (centres unmarked) [Example 131, N-((4-((dimethylamino)(thiophen-2-yl)methyl)cyclohexyl)methyl)-2-(2-(1-(4-methoxy-2,3,6-trimethylphenylsulfonyl)piperidin-4-yl)ethoxy)acetamide] | – | – | 91 | 15 | – |
| CN(C)C(CCc1ccccc1)C1CCC(CNC(=O)COC2CCN(S(=O)(=O)c3ccccc3)C2)CC1 (centres unmarked) [Example 573] | 100 | −4 | – | – | – |
| COc1ccc(S(=O)(=O)N(C)CCOCC(=O)NCC2CCC(C(c3cccs3)N(C)C)CC2)cc1OC (centres unmarked) [Example 127, 2-(2-(3,4-Dimethoxy-N-methylphenylsulfonamido)ethoxy)-N-((4-((dimethylamino)(thiophen-2-yl)methyl)cyclohexyl)methyl)acetamide] | – | – | 79 | -13 | – |
| COc1cc(C)c(S(=O)(=O)N2CCCC(OCC(=O)NCC3CCC(C(CCc4ccccc4)N(C)C)CC3)C2)c(C)c1C (centres unmarked) [Example 551] | 85 | 94 | – | – | – |
| CN(C)C(c1cccs1)C1CCC(CCNC(=O)COC2CCCN(S(=O)(=O)c3ccccc3)C2)CC1 (centres unmarked) [Example 100, N-(2-(4-((dimethylamino)(thiophen-2-yl)methyl)cyclohexyl)ethyl)-2-(1-(phenylsulfonyl)piperidin-3-yloxy)acetamide] | – | – | 97 | -3 | – |
| COc1ccc(S(=O)(=O)N(C)CCOCC(=O)NCCC2CCC(C(c3cccs3)N(C)C)CC2)cc1 (centres unmarked) [Example 128, N-(2-(4-((dimethylamino)(thiophen-2-yl)methyl)cyclohexyl)ethyl)-2-(2-(4-methoxy-N-methylphenylsulfonamido)ethoxy)acetamide] | – | – | 83 | 28 | – |
| COc1ccc(S(=O)(=O)N2CCCCC2COCC(=O)NCC2CCC(C(CCc3ccccc3)N(C)C)CC2)cc1OC (centres unmarked) [Example 570] | – | −18 | – | – | 87 |
